# According to ChEMBL document CHEMBL4619722, “Alanine scan-guided synthesis and biological evaluation of analogues of culicinin D, a potent anticancer peptaibol” (Bioorg Med Chem Lett, 2020):
# pIC50: −log10 of the molar value. Numbered stars: 1 amine (or outer) side, 2 acyl side, 3 side chain; on linkers, the order of the positions; unused ones are H or OH. Square brackets hold non-standard residues; d marks the D form. Peptide text beside a SMILES is read from it. * marks the point of attachment. ξ: configuration not given here. X1 = CCC(=O)C[C@H](O)C[C@@H](C)C[C@H](N[*:1])C(=O)[*:2]; Nva(5-pentanoyl) = CCCCC(=O)CCC[C@H](N)C(=O)O; NH((S)CH(Me)CH2NHC2H4OH) = C[C@@H](CNCCO)N*; Gly(octyl) = CCCCCCCC[C@H](N)C(=O)O; X3 = C[C@H](NC[C@H](C)N*)C(=O)O; Chg = N[C@H](C(=O)O)C1CCCCC1; Ac6c = NC1(C(=O)O)CCCCC1; Nle = CCCC[C@H](N)C(=O)O; Ac4c = NC1(C(=O)O)CCC1; Aib = CC(C)(N)C(=O)O; Butyryl = CCCC(=O)*; ξP = O=C(O)C1CCCN1; βAla = NCCC(=O)O
# Key:
# Format in all cases: functional, cell-based
# T47D = experiment: Antiproliferative activity against human T47D cells
# NCI-H460 = experiment: Antiproliferative activity against human NCI-H460 cells
# SK-BR-3 = experiment: Antiproliferative activity against human SKBR3 cells
# MDA-MB-468 = experiment: Antiproliferative activity against human MDA-MB-468 cells
pIC50 (T47D),pIC50 (NCI-H460),pIC50 (SK-BR-3),pIC50 (MDA-MB-468),Structure (SMILES)
< 6.00,< 6.00,< 6.00,< 6.00,CCCCC(=O)CCC[C@H](NC(=O)C1CCCN1C(=O)CCC)C(=O)NC(C)(C)C(=O)NC(C)(C)C(=O)N[C@@H](C)C(=O)N[C@@H](CC(C)C)C(=O)NC(C)(C)C(=O)N[C@@H](CC(C)C)C(=O)NCCC(=O)N[C@@H](C)CNCCO (stereo partly drawn) (Butyryl-[ξP][Nva(5-pentanoyl)][Aib][Aib]AL[Aib]L[βAla]-{NH((S)CH(Me)CH2NHC2H4OH)})
< 5.00,< 5.00,< 5.00,< 5.00,CCCCCCCC[C@H](NC(=O)C(C)(C)NC(=O)C(C)(C)NC(=O)[C@H](CCC(=O)O)NC(=O)[C@@H]1CCCN1C(=O)CCC)C(=O)N[C@@H](CC(C)C)C(=O)NC(C)(C)C(=O)N[C@@H](CC(C)C)C(=O)NCCC(=O)N[C@@H](C)CNCCO (Butyryl-PE[Aib][Aib][Gly(octyl)]L[Aib]L[βAla]-{NH((S)CH(Me)CH2NHC2H4OH)})
7.51,7.36,7.12,7.38,CCCCCCCC[C@H](NC(=O)C(C)(C)NC(=O)[C@H](C)NC(=O)[C@H](CCCC(=O)CCCC)NC(=O)C1CCCN1C(=O)CCC)C(=O)N[C@@H](CC(C)C)C(=O)NC(C)(C)C(=O)N[C@@H](CC(C)C)C(=O)NCCC(=O)N[C@@H](C)CNCCO (stereo partly drawn) (Butyryl-[ξP][Nva(5-pentanoyl)]A[Aib][Gly(octyl)]L[Aib]L[βAla]-{NH((S)CH(Me)CH2NHC2H4OH)})
7.68,7.80,7.44,7.59,CCCCCCCC[C@H](NC(=O)C(C)(C)NC(=O)C(C)(C)NC(=O)[C@H](CCCC(=O)CCCC)NC(=O)C1CCCN1C(=O)CCC)C(=O)N[C@@H](CC(C)C)C(=O)NC(C)(C)C(=O)N[C@@H](CC(C)C)C(=O)N[C@@H](C)C(=O)N[C@@H](C)CNCCO (stereo partly drawn) (Butyryl-[ξP][Nva(5-pentanoyl)][Aib][Aib][Gly(octyl)]L[Aib]LA-{NH((S)CH(Me)CH2NHC2H4OH)})
8.15,8.30,7.82,8.30,CCCCCCCC[C@H](NC(=O)[C@@H]1CCCN1C(=O)CCC)C(=O)NC(C)(C)C(=O)NC(C)(C)C(=O)N[C@@H](CCCCCCCC)C(=O)N[C@@H](CC(C)C)C(=O)NC(C)(C)C(=O)N[C@@H](CC(C)C)C(=O)NCCC(=O)N[C@@H](C)CNCCO (Butyryl-P[Gly(octyl)][Aib][Aib][Gly(octyl)]L[Aib]L[βAla]-{NH((S)CH(Me)CH2NHC2H4OH)})
7.00,7.02,< 6.00,6.50,CCCCCCCC[C@H](NC(=O)C(C)(C)NC(=O)C(C)(C)NC(=O)[C@H](CCCC(=O)CCCC)NC(=O)C1CCCN1C(=O)CCC)C(=O)N[C@@H](CC(C)C)C(=O)N[C@@H](C)C(=O)N[C@@H](C)C(=O)NCCC(=O)N[C@@H](C)CNCCO (stereo partly drawn) (Butyryl-[ξP][Nva(5-pentanoyl)][Aib][Aib][Gly(octyl)]LAA[βAla]-{NH((S)CH(Me)CH2NHC2H4OH)})
7.29,6.99,6.89,7.18,CCCCCCCC[C@H](NC(=O)C(C)(C)NC(=O)C(C)(C)NC(=O)[C@H](CCCC(=O)CCCC)NC(=O)C1CCCN1C(=O)CCC)C(=O)N[C@@H](C)C(=O)NC(C)(C)C(=O)N[C@@H](CC(C)C)C(=O)NCCC(=O)N[C@@H](C)CNCCO (stereo partly drawn) (Butyryl-[ξP][Nva(5-pentanoyl)][Aib][Aib][Gly(octyl)]A[Aib]L[βAla]-{NH((S)CH(Me)CH2NHC2H4OH)})
< 6.30,6.54,< 6.00,< 6.30,CCCCCCCC[C@H](NC(=O)C(C)(C)NC(=O)C(C)(C)NC(=O)[C@H](CCCC(=O)CCCC)NC(=O)C1CCCN1C(=O)CCC)C(=O)N[C@@H](CC(C)C)C(=O)NC(C)(C)C(=O)N[C@@H](CC(C)C)C(=O)NCCC(=O)N[C@@H](C)CN[C@@H](C)C(=O)O (stereo not given in full) (Butyryl-[ξP][Nva(5-pentanoyl)][Aib][Aib][Gly(octyl)]L[Aib]L[βAla]-X3)
6.78,6.60,< 6.00,6.58,CCCCCCCC[C@H](NC(=O)C(C)(C)NC(=O)C(C)(C)NC(=O)[C@H](CS)NC(=O)[C@@H]1CCCN1C(=O)CCC)C(=O)N[C@@H](CC(C)C)C(=O)NC(C)(C)C(=O)N[C@@H](CC(C)C)C(=O)NCCC(=O)N[C@@H](C)CNCCO (Butyryl-PC[Aib][Aib][Gly(octyl)]L[Aib]L[βAla]-{NH((S)CH(Me)CH2NHC2H4OH)})
7.77,7.72,7.17,7.80,CCCCCCCC[C@H](NC(=O)C(C)(C)NC(=O)C(C)(C)NC(=O)C1(NC(=O)[C@@H]2CCCN2C(=O)CCC)CCC1)C(=O)N[C@@H](CC(C)C)C(=O)NC(C)(C)C(=O)N[C@@H](CC(C)C)C(=O)NCCC(=O)N[C@@H](C)CNCCO (Butyryl-P[Ac4c][Aib][Aib][Gly(octyl)]L[Aib]L[βAla]-{NH((S)CH(Me)CH2NHC2H4OH)})
6.91,< 6.30,< 6.00,7.05,CCCC[C@H](NC(=O)C(C)(C)NC(=O)C(C)(C)NC(=O)[C@H](C[C@H](C)C[C@@H](O)CC(=O)CC)NC(=O)[C@@H]1CCCN1C(=O)CCC)C(=O)N[C@@H](CC(C)C)C(=O)NC(C)(C)C(=O)N[C@@H](CC(C)C)C(=O)NCCC(=O)N[C@@H](C)CNCCO (Butyryl-P[X1][Aib][Aib][Nle]L[Aib]L[βAla]-{NH((S)CH(Me)CH2NHC2H4OH)})
8.10,8.22,7.68,8.00,CCCCCCCC[C@H](NC(=O)C(C)(C)NC(=O)C(C)(C)NC(=O)[C@@H](NC(=O)[C@@H]1CCCN1C(=O)CCC)C1CCCCC1)C(=O)N[C@@H](CC(C)C)C(=O)NC(C)(C)C(=O)N[C@@H](CC(C)C)C(=O)NCCC(=O)N[C@@H](C)CNCCO (Butyryl-P[Chg][Aib][Aib][Gly(octyl)]L[Aib]L[βAla]-{NH((S)CH(Me)CH2NHC2H4OH)})
6.82,6.34,< 6.00,6.87,CCCCCCCC[C@H](NC(=O)C(C)(C)NC(=O)C(C)(C)NC(=O)[C@H](Cc1c[nH]cn1)NC(=O)[C@@H]1CCCN1C(=O)CCC)C(=O)N[C@@H](CC(C)C)C(=O)NC(C)(C)C(=O)N[C@@H](CC(C)C)C(=O)NCCC(=O)N[C@@H](C)CNCCO (Butyryl-PH[Aib][Aib][Gly(octyl)]L[Aib]L[βAla]-{NH((S)CH(Me)CH2NHC2H4OH)})
7.60,7.41,7.02,7.51,CCCCCCCC[C@H](NC(=O)C(C)(C)NC(=O)C(C)(C)NC(=O)C1(NC(=O)[C@@H]2CCCN2C(=O)CCC)CCCCC1)C(=O)N[C@@H](CC(C)C)C(=O)NC(C)(C)C(=O)N[C@@H](CC(C)C)C(=O)NCCC(=O)N[C@@H](C)CNCCO (Butyryl-P[Ac6c][Aib][Aib][Gly(octyl)]L[Aib]L[βAla]-{NH((S)CH(Me)CH2NHC2H4OH)})
< 6.00,6.58,< 6.00,< 6.00,CCCCCCCC[C@H](NC(=O)C(C)(C)NC(=O)C(C)(C)NC(=O)[C@H](CCCC(=O)CCCC)NC(=O)C1CCCN1C(=O)CCC)C(=O)N[C@@H](CC(C)C)C(=O)N[C@@H](C)C(=O)N[C@@H](CC(C)C)C(=O)NCCC(=O)N[C@@H](C)CNCCO (stereo partly drawn) (Butyryl-[ξP][Nva(5-pentanoyl)][Aib][Aib][Gly(octyl)]LAL[βAla]-{NH((S)CH(Me)CH2NHC2H4OH)})
